According to ChEMBL document CHEMBL3885881, “DrugMatrix”:

Organism: Rattus norvegicus
Experiment: DrugMatrix - Regimen: Daily Repeat
Format: toxicity, organism-based, Sprague-Dawley
Parameters: regimen Daily Repeat, gender Male, age 6-8 weeks
Conditions: in vivo, po, route oral GAVAGE, vehicle 100 % WATER; for ABSOLUTE BASOPHIL / ABSOLUTE EOSINOPHIL / ABSOLUTE LYMPHOCYTE / ABSOLUTE MONOCYTE / ABSOLUTE SEGMENTED NEUTROPHIL / BASOPHIL / EOSINOPHIL / ERYTHROCYTE COUNT / HEMATOCRIT / HEMOGLOBIN / LEUKOCYTE COUNT / LYMPHOCYTE / MEAN CORPUSCULAR HEMOGLOBIN / MEAN CORPUSCULAR HEMOGLOBIN CONCENTRATION / MEAN CORPUSCULAR VOLUME / MONOCYTE / NEUTROPHIL / NUCLEATED RED BLOOD CELLS / PLATELET COUNT: tissue Blood; for ALANINE AMINOTRANSFERASE / ALBUMIN / ALKALINE PHOSPHATASE / ASPARTATE AMINOTRANSFERASE / BLOOD UREA NITROGEN / CARBON DIOXIDE / CHLORIDE / CHOLESTEROL / CREATINE PHOSPHOKINASE / CREATININE / GLUCOSE / LACTATE DEHYDROGENASE / LIPASE / PHOSPHORUS / POTASSIUM / SODIUM / TOTAL BILIRUBIN / TOTAL PROTEIN / URIC ACID: tissue Plasma
[1] = 14 mg/kg, 120 h, dose level Low, time 5 day
[2] = 1000 mg/kg, 72 h, dose level High, time 3 day
[3] = 1000 mg/kg, 120 h, dose level High, time 5 day

Structure (SMILES): C[C@H]1c2cccc(O)c2C(=O)C2=C(O)[C@]3(O)C(=O)C(C(N)=O)=C(O)[C@@H](N(C)C)[C@@H]3[C@@H](O)[C@@H]21.O [DOXYCYCLINE]
- ABSOLUTE BASOPHIL [1]: 0 CELLS/uL
- ABSOLUTE EOSINOPHIL [1]: 22.33 CELLS/uL
- ABSOLUTE LYMPHOCYTE [1]: 6462.67 CELLS/uL
- ABSOLUTE MONOCYTE [1]: 105.33 CELLS/uL
- ABSOLUTE SEGMENTED NEUTROPHIL [1]: 909.67 CELLS/uL
- BASOPHIL [1]: 0%
- EOSINOPHIL [1]: 0.33%
- ERYTHROCYTE COUNT [1]: 5.81 x10E6/uL
- HEMATOCRIT [1]: 36.47%
- HEMOGLOBIN [1]: 13.87 G/DL
- LEUKOCYTE COUNT [1]: 7.5 x10E3/uL
- LYMPHOCYTE [1]: 86.67%
- MEAN CORPUSCULAR HEMOGLOBIN [1]: 23.9 pg
- MEAN CORPUSCULAR HEMOGLOBIN CONCENTRATION [1]: 38.1 G/DL
- MEAN CORPUSCULAR VOLUME [1]: 62.77 fL
- MONOCYTE [1]: 1.33%
- NEUTROPHIL [1]: 11.67%
- NUCLEATED RED BLOOD CELLS [1]: 0.33 /100WBC
- PLATELET COUNT [1]: 1055 x10E3/uL
- ALANINE AMINOTRANSFERASE [1]: 56.67 u/L
- ALBUMIN [1]: 4.23 G/DL
- ALKALINE PHOSPHATASE [1]: 411.33 u/L
- ASPARTATE AMINOTRANSFERASE [1]: 92 u/L
- BLOOD UREA NITROGEN [1]: 17.67 mg/dL
- CARBON DIOXIDE [1]: 32 mmol/L
- CHLORIDE [1]: 101.67 MEQ/L
- CHOLESTEROL [1]: 67 mg/dL
- CREATINE PHOSPHOKINASE [1]: 551.33 u/L
- CREATININE [1]: 0.19 mg/dL
- GLUCOSE [1]: 154.67 mg/dL
- LACTATE DEHYDROGENASE [1]: 117 u/L
- LIPASE [1]: 11 u/L
- PHOSPHORUS [1]: 11.33 mg/dL
- POTASSIUM [1]: 6.02 MEQ/L
- SODIUM [1]: 147 MEQ/L
- TOTAL BILIRUBIN [1]: 0.1 mg/dL
- TOTAL PROTEIN [1]: 6.37 G/DL
- URIC ACID [1]: 0.8 mg/dL
- ABSOLUTE BASOPHIL [2]: 0 CELLS/uL
- ABSOLUTE EOSINOPHIL [2]: 0 CELLS/uL
- ABSOLUTE LYMPHOCYTE [2]: 7696.67 CELLS/uL
- ABSOLUTE MONOCYTE [2]: 0 CELLS/uL
- ABSOLUTE SEGMENTED NEUTROPHIL [2]: 736.67 CELLS/uL
- BASOPHIL [2]: 0%
- EOSINOPHIL [2]: 0%
- ERYTHROCYTE COUNT [2]: 5.23 x10E6/uL
- HEMATOCRIT [2]: 32.1%
- HEMOGLOBIN [2]: 12.57 G/DL
- LEUKOCYTE COUNT [2]: 8.43 x10E3/uL
- LYMPHOCYTE [2]: 92.33%
- MEAN CORPUSCULAR HEMOGLOBIN [2]: 24.07 pg
- MEAN CORPUSCULAR HEMOGLOBIN CONCENTRATION [2]: 39.17 G/DL
- MEAN CORPUSCULAR VOLUME [2]: 61.4 fL
- MONOCYTE [2]: 0%
- NEUTROPHIL [2]: 7.67%
- NUCLEATED RED BLOOD CELLS [2]: 0 /100WBC
- PLATELET COUNT [2]: 1333.67 x10E3/uL
- ALANINE AMINOTRANSFERASE [2]: 59.33 u/L
- ALBUMIN [2]: 4.03 G/DL
- ALKALINE PHOSPHATASE [2]: 294.67 u/L
- ASPARTATE AMINOTRANSFERASE [2]: 81 u/L
- BLOOD UREA NITROGEN [2]: 14.67 mg/dL
- CARBON DIOXIDE [2]: 32.33 mmol/L
- CHLORIDE [2]: 103 MEQ/L
- CHOLESTEROL [2]: 89 mg/dL
- CREATINE PHOSPHOKINASE [2]: 186 u/L
- CREATININE [2]: 0.18 mg/dL
- GLUCOSE [2]: 146 mg/dL
- LACTATE DEHYDROGENASE [2]: 161.33 u/L
- LIPASE [2]: 12.33 u/L
- PHOSPHORUS [2]: 10.9 mg/dL
- POTASSIUM [2]: 5.89 MEQ/L
- SODIUM [2]: 146.35 MEQ/L
- TOTAL BILIRUBIN [2]: 0.0667 mg/dL
- TOTAL PROTEIN [2]: 5.97 G/DL
- URIC ACID [2]: 1.2 mg/dL
- ABSOLUTE BASOPHIL [3]: 0 CELLS/uL
- ABSOLUTE EOSINOPHIL [3]: 19.67 CELLS/uL
- ABSOLUTE LYMPHOCYTE [3]: 6922.33 CELLS/uL
- ABSOLUTE MONOCYTE [3]: 67.67 CELLS/uL
- ABSOLUTE SEGMENTED NEUTROPHIL [3]: 1023.67 CELLS/uL
- BASOPHIL [3]: 0%
- EOSINOPHIL [3]: 0.33%
- ERYTHROCYTE COUNT [3]: 5.99 x10E6/uL
- HEMATOCRIT [3]: 36.73%
- HEMOGLOBIN [3]: 14.13 G/DL
- LEUKOCYTE COUNT [3]: 8.03 x10E3/uL
- LYMPHOCYTE [3]: 85.67%
- MEAN CORPUSCULAR HEMOGLOBIN [3]: 23.63 pg
- MEAN CORPUSCULAR HEMOGLOBIN CONCENTRATION [3]: 38.53 G/DL
- MEAN CORPUSCULAR VOLUME [3]: 61.37 fL
- MONOCYTE [3]: 1%
- NEUTROPHIL [3]: 13%
- NUCLEATED RED BLOOD CELLS [3]: 0 /100WBC
- PLATELET COUNT [3]: 1104.67 x10E3/uL
- ALANINE AMINOTRANSFERASE [3]: 56 u/L
- ALBUMIN [3]: 3.97 G/DL
- ALKALINE PHOSPHATASE [3]: 312 u/L
- ASPARTATE AMINOTRANSFERASE [3]: 84.33 u/L
- BLOOD UREA NITROGEN [3]: 21 mg/dL
- CARBON DIOXIDE [3]: 32 mmol/L
- CHLORIDE [3]: 99.67 MEQ/L
- CHOLESTEROL [3]: 87.33 mg/dL
- CREATINE PHOSPHOKINASE [3]: 239.67 u/L
- CREATININE [3]: 0.26 mg/dL
- GLUCOSE [3]: 138 mg/dL
- LACTATE DEHYDROGENASE [3]: 100.67 u/L
- LIPASE [3]: 11.33 u/L
- PHOSPHORUS [3]: 10.53 mg/dL
- POTASSIUM [3]: 6.12 MEQ/L
- SODIUM [3]: 146.5 MEQ/L
- TOTAL BILIRUBIN [3]: 0.13 mg/dL
- TOTAL PROTEIN [3]: 5.87 G/DL
- URIC ACID [3]: 0.97 mg/dL
